Results: US5945430A, “Aminooxyamide tricyclic inhibitors of farnesyl-protein transferase” (Schering Corporation, priority 1998, dated 1999)
pIC50: −log10 of the molar value.

Columns and labels:
[1] = biological target: T1, H-ras FPT (Ras-CVLS farnesylation by partially purified rat brain farnesyl protein transferase (FPT)) (Rattus norvegicus, UniProt Q02293+Q04631); assay: FPT IC50 (inhibition of farnesyl protein transferase, in vitro enzyme assay); type: biochemical
T1 construct: partially purified rat brain farnesyl protein transferase (FPT); from tissue; host or cells: rat brain, partially purified

[2] = tested on: Ras processing in COS cells; assay: COS IC50, cell-based assay: COS cells activity inhibition of Ras processing
Protocol: 2. Cell-based assay. COS IC50 values refer to the COS cells activity inhibition of Ras processing, are determined by the methods disclosed in […] or WO 95/10516.

SMILES | pIC50 [1] | pIC50 [2]
O=C(NOCC(=O)N1CCC([C@H]2c3ncc(Br)cc3CCc3cc(Cl)cc(Br)c32)CC1)c1ccccc1 [Example 1] | 7.57 | 
O=C(CO/N=C/c1cc[n+]([O-])cc1)N1CCC([C@H]2c3ncc(Br)cc3CCc3cc(Cl)cc(Br)c32)CC1 [Example 6] |  | 6.16
NOCC(=O)N1CCC([C@H]2c3ncc(Br)cc3CCc3cc(Cl)cc(Br)c32)CC1 [Example 15, (+)-1-[(aminooxy)acetyl]-4-(3,10-dibromo-8-chloro-6,11-dihydro-5H-benzo[5,6]cyclohepta[1,2-b]pyridin-11(R)-yl)piperidine] | 7.49 | 
